Measurements taken from ChEMBL document CHEMBL4385645, “Broad-spectrum antifungal activity of spirooxindolo-pyrrolidine tethered indole/imidazole hybrid heterocycles against fungal pathogens” (Bioorg Med Chem Lett, 2019).
Values after ≈ are worked out from the molar mass of the structure shown. Active and inactive are the calls of the source. The calls are words filed in the database; no cut-off is given here.

How the values were obtained:
Candida albicans [1] = test: Antifungal activity against Candida albicans assessed as reduction in fungal growth incubated for 24 hrs by broth microdilution method; assay type: functional
Candida albicans [2] = test: Antifungal activity against Candida albicans NR-29441 assessed as reduction in fungal growth incubated for 24 hrs by broth microdilution method; assay type: functional; conditions: NR-29441, 24 h
Cryptococcus neoformans [3] = test: Antifungal activity against Cryptococcus neoformans NR-41296 assessed as reduction in fungal growth incubated for 24 hrs by broth microdilution method; assay type: functional; conditions: NR-41296, 24 h
Candida albicans [4] = test: Antifungal activity against Candida albicans NR-29438 assessed as reduction in fungal growth incubated for 24 hrs by broth microdilution method; assay type: functional; conditions: NR-29438, 24 h
Candida albicans [5] = test: Antifungal activity against Candida albicans NR-29444 assessed as reduction in fungal growth incubated for 24 hrs by broth microdilution method; assay type: functional; conditions: NR-29444, 24 h
Candida albicans [6] = test: Antifungal activity against Candida albicans assessed as reduction in hyphae formation and attachment at 32 to 64 ug/ml incubated for 12 hrs by crystal violet dye-based microscopic analysis; assay type: functional; set-up: scale not given: the % may be the effect or the level left
Candida albicans [7] = test: Antifungal activity against Candida albicans NR-29366 assessed as reduction in fungal growth incubated for 24 hrs by broth microdilution method; assay type: functional, organism-based
Candida albicans [8] = test: Antifungal activity against Candida albicans NR-29437 assessed as reduction in fungal growth incubated for 24 hrs by broth microdilution method; assay type: functional; conditions: NR-29437, 24 h
Cryptococcus neoformans [9] = test: Antifungal activity against Cryptococcus neoformans NR-41297 assessed as reduction in fungal growth incubated for 24 hrs by broth microdilution method; assay type: functional; conditions: NR-41297, 24 h
Cryptococcus neoformans [10] = test: Antifungal activity against Cryptococcus neoformans NR-41292 assessed as reduction in fungal growth incubated for 24 hrs by broth microdilution method; assay type: functional; conditions: NR-41292, 24 h
Candida albicans [11] = test: Antifungal activity against Candida albicans NR-29367 assessed as reduction in fungal growth incubated for 24 hrs by broth microdilution method; assay type: functional; conditions: NR-29367, 24 h
Candida albicans [12] = test: Antifungal activity against Candida albicans NR-29434 assessed as reduction in fungal growth incubated for 24 hrs by broth microdilution method; assay type: functional; conditions: NR-29434, 24 h
Candida albicans [13] = test: Antifungal activity against Candida albicans NR-29440 assessed as reduction in fungal growth incubated for 24 hrs by broth microdilution method; assay type: functional; conditions: NR-29440, 24 h
Cryptococcus neoformans [14] = test: Antifungal activity against Cryptococcus neoformans NR-41291 assessed as reduction in fungal growth incubated for 24 hrs by broth microdilution method; assay type: functional; conditions: NR-41291, 24 h
Cryptococcus neoformans [15] = test: Antifungal activity against Cryptococcus neoformans NR-41299 assessed as reduction in fungal growth incubated for 24 hrs by broth microdilution method; assay type: functional; conditions: NR-41299, 24 h
Candida albicans [16] = test: Inhibition of biofilm formation in Candida albicans assessed as reduction in metabolic activity at 32 and 64 ug/ml incubated for 48 hrs by MTS assay; assay type: functional
Candida albicans [17] = test: Antifungal activity against Candida albicans NR-29442 assessed as reduction in fungal growth incubated for 24 hrs by broth microdilution method; assay type: functional; conditions: NR-29442, 24 h
Candida albicans [18] = test: Antifungal activity against Candida albicans NR-29446 assessed as reduction in fungal growth incubated for 24 hrs by broth microdilution method; assay type: functional; conditions: NR-29446, 24 h
Candida albicans [19] = test: Antifungal activity against Candida albicans NR-29448 assessed as reduction in fungal growth incubated for 24 hrs by broth microdilution method; assay type: functional; conditions: NR-29448, 24 h
Cryptococcus neoformans [20] = test: Antifungal activity against Cryptococcus neoformans NR-41295 assessed as reduction in fungal growth incubated for 24 hrs by broth microdilution method; assay type: functional; conditions: NR-41295, 24 h
Candida albicans [21] = test: Antifungal activity against Candida albicans NR-29435 assessed as reduction in fungal growth incubated for 24 hrs by broth microdilution method; assay type: functional; conditions: NR-29435, 24 h
Candida albicans [22] = test: Antifungal activity against Candida albicans ATCC 10231 assessed as reduction in fungal growth incubated for 24 hrs by broth microdilution method; assay type: functional; conditions: ATCC 10231, 24 h
Candida albicans [23] = test: Antifungal activity against Candida albicans NR-29439 assessed as reduction in fungal growth incubated for 24 hrs by broth microdilution method; assay type: functional; conditions: NR-29439, 24 h
Cryptococcus neoformans [24] = test: Antifungal activity against Cryptococcus neoformans NR-41298 assessed as reduction in fungal growth incubated for 24 hrs by broth microdilution method; assay type: functional; conditions: NR-41298, 24 h
Candida albicans [25] = test: Antifungal activity against Candida albicans NR5-29453 assessed as reduction in fungal growth incubated for 24 hrs by broth microdilution method; assay type: functional; conditions: NR5-29453, 24 h
Candida albicans [26] = test: Antifungal activity against Candida albicans NR-29449 assessed as reduction in fungal growth incubated for 24 hrs by broth microdilution method; assay type: functional; conditions: NR-29449, 24 h
Cryptococcus neoformans [27] = test: Antifungal activity against Cryptococcus neoformans NR-41294 assessed as reduction in fungal growth incubated for 24 hrs by broth microdilution method; assay type: functional; conditions: NR-41294, 24 h
HCT-116 = test: Cytotoxicity against human HCT116 cells assessed as reduction in cell viability at 2 to 128 ug/ml incubated for 24 hrs by MTS assay; assay type: cell-based; conditions: hct-116, 24 h

O=C1Nc2ccc(OC(F)(F)F)cc2[C@@]12N[C@H](Cc1c[nH]cn1)[C@@H]([N+](=O)[O-])[C@@H]2c1ccc(Cl)cc1
MIC (Candida albicans [1]): 8 µg/mL (≈ 15.8 µM)

O=C1Nc2ccccc2[C@@]12N[C@H](Cc1c[nH]cn1)[C@@H]([N+](=O)[O-])[C@@H]2c1ccc(Br)cc1
MIC (Candida albicans [1]): 16 µg/mL (≈ 34.2 µM)

O=C1Nc2ccccc2[C@@]12N[C@H](Cc1c[nH]c3ccccc13)[C@@H]([N+](=O)[O-])[C@@H]2c1ccccc1Cl
MIC (Candida albicans [1]): 32 µg/mL (≈ 67.7 µM)

O=C1Nc2ccccc2[C@@]12N[C@H](Cc1c[nH]cn1)[C@@H]([N+](=O)[O-])[C@@H]2c1cccc([N+](=O)[O-])c1
MIC (Candida albicans [1]): 16 µg/mL (≈ 36.8 µM)

COc1ccc([C@H]2[C@H]([N+](=O)[O-])[C@@H](Cc3c[nH]cn3)N[C@]23C(=O)Nc2ccc(OC(F)(F)F)cc23)cc1
MIC (Candida albicans [1]): 32 µg/mL (≈ 63.6 µM)

O=C1Nc2ccc(OC(F)(F)F)cc2[C@@]12N[C@H](Cc1c[nH]cn1)[C@@H]([N+](=O)[O-])[C@@H]2c1ccccc1
MIC (Candida albicans [1]): 32 µg/mL (≈ 67.6 µM)

Cc1ccc([C@H]2[C@H]([N+](=O)[O-])[C@@H](Cc3c[nH]c4ccccc34)N[C@]23C(=O)Nc2ccccc23)cc1
MIC (Candida albicans [1]): 128 µg/mL (≈ 283 µM)

O=C1Nc2ccc(OC(F)(F)F)cc2[C@@]12N[C@H](Cc1c[nH]c3ccccc13)[C@@H]([N+](=O)[O-])[C@@H]2c1ccc(Cl)cc1
MIC (Candida albicans [1]): 16 µg/mL (≈ 28.7 µM)

O=C1Nc2ccccc2[C@@]12N[C@H](Cc1c[nH]cn1)[C@@H]([N+](=O)[O-])[C@@H]2c1ccccc1Cl
MIC (Candida albicans [1]): 8 µg/mL (≈ 18.9 µM)

Cc1ccc([C@H]2[C@H]([N+](=O)[O-])[C@@H](Cc3c[nH]cn3)N[C@]23C(=O)Nc2ccccc23)cc1
MIC (Candida albicans [1]): 64 µg/mL (≈ 159 µM)

O=C1Nc2ccccc2[C@@]12N[C@H](Cc1c[nH]cn1)[C@@H]([N+](=O)[O-])[C@@H]2c1ccccc1
MIC (Candida albicans [1]): 16 µg/mL (≈ 41.1 µM)

Cc1ccc([C@H]2[C@H]([N+](=O)[O-])[C@@H](Cc3c[nH]c4ccccc34)N[C@]23C(=O)Nc2ccc(OC(F)(F)F)cc23)cc1
MIC (Candida albicans [1]): 32 µg/mL (≈ 59.6 µM)

COc1ccc([C@H]2[C@H]([N+](=O)[O-])[C@@H](Cc3c[nH]c4ccccc34)N[C@]23C(=O)Nc2ccccc23)cc1
MIC (Candida albicans [1]): 16 µg/mL (≈ 34.2 µM)

O=C1Nc2ccc(OC(F)(F)F)cc2[C@@]12N[C@H](Cc1c[nH]cn1)[C@@H]([N+](=O)[O-])[C@@H]2c1ccccc1Cl
MIC (Candida albicans [2]): 8 µg/mL (≈ 15.8 µM)
MIC (Cryptococcus neoformans [3]): 16 µg/mL (≈ 31.5 µM)
MIC (Candida albicans [4]): 16 µg/mL (≈ 31.5 µM)
MIC (Candida albicans [5]): 16 µg/mL (≈ 31.5 µM)
Activity (Candida albicans [6]): 30 - 40%
inhibition (Candida albicans [7]): Active
MIC (Candida albicans [8]): 16 µg/mL (≈ 31.5 µM)
MIC (Cryptococcus neoformans [9]): 16 µg/mL (≈ 31.5 µM)
MIC (Cryptococcus neoformans [10]): 16 µg/mL (≈ 31.5 µM)
MIC (Candida albicans [1]): 4 µg/mL (≈ 7.88 µM)
MIC (Candida albicans [11]): 16 µg/mL (≈ 31.5 µM)
MIC (Candida albicans [12]): 16 µg/mL (≈ 31.5 µM)
MIC (Candida albicans [13]): 16 µg/mL (≈ 31.5 µM)
MIC (Cryptococcus neoformans [14]): 16 µg/mL (≈ 31.5 µM)
MIC (Cryptococcus neoformans [15]): 16 µg/mL (≈ 31.5 µM)
inhibition (INH) (Candida albicans [16]): <=25%
MIC (Candida albicans [17]): 8 µg/mL (≈ 15.8 µM)
MIC (Candida albicans [18]): 4 µg/mL (≈ 7.88 µM)
MIC (Candida albicans [19]): 4 µg/mL (≈ 7.88 µM)
MIC (Cryptococcus neoformans [20]): 16 µg/mL (≈ 31.5 µM)
MIC (Candida albicans [21]): 8 µg/mL (≈ 15.8 µM)
MIC (Candida albicans [22]): 8 µg/mL (≈ 15.8 µM)
MIC (Candida albicans [23]): 8 µg/mL (≈ 15.8 µM)
MIC (Cryptococcus neoformans [24]): 8 µg/mL (≈ 15.8 µM)
MIC (Candida albicans [25]): 16 µg/mL (≈ 31.5 µM)
MIC (Candida albicans [26]): 8 µg/mL (≈ 15.8 µM)
MIC (Cryptococcus neoformans [27]): 4 µg/mL (≈ 7.88 µM)
Activity (HCT-116): Non-Toxic

O=C1Nc2ccc(OC(F)(F)F)cc2[C@@]12N[C@H](Cc1c[nH]c3ccccc13)[C@@H]([N+](=O)[O-])[C@@H]2c1ccccc1
MIC (Candida albicans [1]): 8 µg/mL (≈ 15.3 µM)

COc1ccc([C@H]2[C@H]([N+](=O)[O-])[C@@H](Cc3c[nH]cn3)N[C@]23C(=O)Nc2ccccc23)cc1
MIC (Candida albicans [1]): 32 µg/mL (≈ 76.3 µM)

O=C1Nc2ccc(OC(F)(F)F)cc2[C@@]12N[C@H](Cc1c[nH]c3ccccc13)[C@@H]([N+](=O)[O-])[C@@H]2c1ccc(Br)cc1
MIC (Candida albicans [1]): 8 µg/mL (≈ 13.3 µM)

O=C1Nc2ccccc2[C@@]12N[C@H](Cc1c[nH]c3ccccc13)[C@@H]([N+](=O)[O-])[C@@H]2c1ccccc1
MIC (Candida albicans [1]): 64 µg/mL (≈ 146 µM)

O=C1Nc2ccccc2[C@@]12N[C@H](Cc1c[nH]c3ccccc13)[C@@H]([N+](=O)[O-])[C@@H]2c1ccc(Cl)cc1
MIC (Candida albicans [1]): 16 µg/mL (≈ 33.8 µM)

O=C1Nc2ccc(OC(F)(F)F)cc2[C@@]12N[C@H](Cc1c[nH]c3ccccc13)[C@@H]([N+](=O)[O-])[C@@H]2c1cccc([N+](=O)[O-])c1
MIC (Candida albicans [1]): 16 µg/mL (≈ 28.2 µM)

O=C1Nc2ccc(OC(F)(F)F)cc2[C@@]12N[C@H](Cc1c[nH]cn1)[C@@H]([N+](=O)[O-])[C@@H]2c1ccc(Br)cc1
MIC (Candida albicans [1]): 8 µg/mL (≈ 14.5 µM)

O=C1Nc2ccc(OC(F)(F)F)cc2[C@@]12N[C@H](Cc1c[nH]c3ccccc13)[C@@H]([N+](=O)[O-])[C@@H]2c1ccccc1Cl
MIC (Candida albicans [1]): 16 µg/mL (≈ 28.7 µM)

O=C1Nc2ccc(OC(F)(F)F)cc2[C@@]12N[C@H](Cc1c[nH]cn1)[C@@H]([N+](=O)[O-])[C@@H]2c1cccc([N+](=O)[O-])c1
MIC (Candida albicans [1]): 32 µg/mL (≈ 61.7 µM)

O=C1Nc2ccccc2[C@@]12N[C@H](Cc1c[nH]c3ccccc13)[C@@H]([N+](=O)[O-])[C@@H]2c1ccc(Br)cc1
MIC (Candida albicans [1]): 64 µg/mL (≈ 124 µM)

O=C1Nc2ccccc2[C@@]12N[C@H](Cc1c[nH]c3ccccc13)[C@@H]([N+](=O)[O-])[C@@H]2c1cccc([N+](=O)[O-])c1
MIC (Candida albicans [1]): 8 µg/mL (≈ 16.5 µM)

COc1ccc([C@H]2[C@H]([N+](=O)[O-])[C@@H](Cc3c[nH]c4ccccc34)N[C@]23C(=O)Nc2ccc(OC(F)(F)F)cc23)cc1
MIC (Candida albicans [1]): 16 µg/mL (≈ 29 µM)

Cc1ccc([C@H]2[C@H]([N+](=O)[O-])[C@@H](Cc3c[nH]cn3)N[C@]23C(=O)Nc2ccc(OC(F)(F)F)cc23)cc1
MIC (Candida albicans [1]): 16 µg/mL (≈ 32.8 µM)

O=C1Nc2ccccc2[C@@]12N[C@H](Cc1c[nH]cn1)[C@@H]([N+](=O)[O-])[C@@H]2c1ccc(Cl)cc1
MIC (Candida albicans [1]): 8 µg/mL (≈ 18.9 µM)
